{
  "source": "paper PMC5218480",
  "about": "(PLoS ONE, 2017)",
  "test_system": "MV-4-11 cells",
  "test": "Gene expression microarray analysis (Affymetrix PrimeView) and GSEA",
  "assay_type": "cell-based, human",
  "set-up": "RFU PODN (11730768_x_at) / Fold change /veh PODN (11730768_x_at) / RFU LINC00158 (11744669_a_at) / Fold change /veh LINC00158 (11744669_a_at) / RFU DUSP10 (11751237_a_at) / Fold change /veh DUSP10 (11751237_a_at) / RFU ID3 (11757404_x_at) / Fold change /veh ID3 (11757404_x_at) / RFU PLEKHG5 (11737974_s_at) / Fold change /veh PLEKHG5 (11737974_s_at) / RFU LRRC4B (11730491_at) / Fold change /veh LRRC4B (11730491_at) / RFU GIMAP4 (11747438_a_at) / Fold change /veh GIMAP4 (11747438_a_at) / RFU KRT8 (11758183_x_at) / Fold change /veh KRT8 (11758183_x_at) / RFU CNN1 (11734310_a_at) / Fold change /veh CNN1 (11734310_a_at) / RFU VPS37D (11726825_at) / Fold change /veh VPS37D (11726825_at) / RFU C10orf10 (11716522_x_at) / Fold change /veh C10orf10 (11716522_x_at) / RFU KIR2DL2 /// KIR2DL4 /// KIR2DL5A /// KIR2DL5B /// KIR2DS1 /// KIR2DS2 /// KIR2DS3 /// KIR2DS4 /// KIR3DL3 /// KIR3DL3 /// KIR3DS1 (11738374_at) / Fold change /veh KIR2DL2 /// KIR2DL4 /// KIR2DL5A /// KIR2DL5B /// KIR2DS1 /// KIR2DS2 /// KIR2DS3 /// KIR2DS4 /// KIR3DL3 /// KIR3DL3 /// KIR3DS1 (11738374_at) / RFU C1QL1 (11718748_at) / Fold change /veh C1QL1 (11718748_at) / RFU TMPRSS4 (11747572_a_at) / Fold change /veh TMPRSS4 (11747572_a_at) / RFU HAMP (11756126_x_at) / Fold change /veh HAMP (11756126_x_at) / RFU RNFT2 (11725882_a_at) / Fold change /veh RNFT2 (11725882_a_at) / RFU NR4A2 (11747474_a_at) / Fold change /veh NR4A2 (11747474_a_at) / RFU ABCC12 (11746883_a_at) / Fold change /veh ABCC12 (11746883_a_at) / RFU TMEM136 (11760407_x_at) / Fold change /veh TMEM136 (11760407_x_at) / RFU CLDN22 /// WWC2 (11732394_at) / Fold change /veh CLDN22 /// WWC2 (11732394_at) / RFU HLA-DPB1 (11760878_x_at) / Fold change /veh HLA-DPB1 (11760878_x_at) / RFU SPINT1 (11716480_a_at) / Fold change /veh SPINT1 (11716480_a_at) / RFU GAP43 (11754022_s_at) / Fold change /veh GAP43 (11754022_s_at) / RFU A4GNT (11735810_at) / Fold change /veh A4GNT (11735810_at) / RFU PRB3 (11715151_x_at) / Fold change /veh PRB3 (11715151_x_at) / RFU TUBB4B (11761932_at) / Fold change /veh TUBB4B (11761932_at) / RFU CAPN14 (11732068_a_at) / Fold change /veh CAPN14 (11732068_a_at) / RFU TMCC2 (11721928_a_at) / Fold change /veh TMCC2 (11721928_a_at) / RFU IRGQ (11745062_a_at) / Fold change /veh IRGQ (11745062_a_at) / RFU FAM174B (11720279_a_at) / Fold change /veh FAM174B (11720279_a_at) / RFU TMPRSS4 (11748680_a_at) / Fold change /veh TMPRSS4 (11748680_a_at) / RFU FAM212B (11763350_a_at) / Fold change /veh FAM212B (11763350_a_at) / RFU PLEKHG5 (11743358_a_at) / Fold change /veh PLEKHG5 (11743358_a_at) / RFU ZSCAN30 (11745921_a_at) / Fold change /veh ZSCAN30 (11745921_a_at) / RFU CMKLR1 (11741424_a_at) / Fold change /veh CMKLR1 (11741424_a_at) / RFU LOC101060620 /// MAPK8IP1 (11723275_at) / Fold change /veh LOC101060620 /// MAPK8IP1 (11723275_at) / RFU SPTSSB (11747773_x_at) / Fold change /veh SPTSSB (11747773_x_at) / RFU PRSS12 (11739890_at) / Fold change /veh PRSS12 (11739890_at) / RFU BIN1 (11741810_x_at) / Fold change /veh BIN1 (11741810_x_at) / RFU WNT11 (11732464_a_at) / Fold change /veh WNT11 (11732464_a_at) / RFU C10orf10 (11716521_a_at) / Fold change /veh C10orf10 (11716521_a_at) / RFU C5orf56 (11738089_at) / Fold change /veh C5orf56 (11738089_at) / RFU CYB561 (11721691_x_at) / Fold change /veh CYB561 (11721691_x_at) / RFU ANKRD19P (11752326_a_at) / Fold change /veh ANKRD19P (11752326_a_at) / RFU OR2T12 /// OR2T33 /// OR2T8 (11738714_s_at) / Fold change /veh OR2T12 /// OR2T33 /// OR2T8 (11738714_s_at) / RFU VCAN (11748164_a_at) / Fold change /veh VCAN (11748164_a_at) / RFU JSRP1 (11732532_at) / Fold change /veh JSRP1 (11732532_at) / RFU KRTAP10-11 (11738290_x_at) / Fold change /veh KRTAP10-11 (11738290_x_at) / RFU MYO3A (11730013_a_at) / Fold change /veh MYO3A (11730013_a_at) / RFU EBF3 (11725865_a_at) / Fold change /veh EBF3 (11725865_a_at) / RFU CAMK2N1 (11719241_x_at) / Fold change /veh CAMK2N1 (11719241_x_at) / RFU C5orf56 (11738088_a_at) / Fold change /veh C5orf56 (11738088_a_at) / RFU OLFML3 (11715873_a_at) / Fold change /veh OLFML3 (11715873_a_at) / RFU LOC100653217 /// NTM (11731650_a_at) / Fold change /veh LOC100653217 /// NTM (11731650_a_at) / RFU MAPK11 (11762145_a_at) / Fold change /veh MAPK11 (11762145_a_at) / RFU FIZ1 (11724087_x_at) / Fold change /veh FIZ1 (11724087_x_at) / RFU OASL (11726364_x_at) / Fold change /veh OASL (11726364_x_at) / RFU SOX15 (11748057_x_at) / Fold change /veh SOX15 (11748057_x_at) / RFU CD79A (11719716_a_at) / Fold change /veh CD79A (11719716_a_at) / RFU HIST1H1D (11736915_at) / Fold change /veh HIST1H1D (11736915_at) / RFU CASKIN2 (11723855_a_at) / Fold change /veh CASKIN2 (11723855_a_at) / RFU LOC730098 (11760151_x_at) / Fold change /veh LOC730098 (11760151_x_at) / RFU OR4N2 (11742367_at) / Fold change /veh OR4N2 (11742367_at) / RFU PRRT2 (11749266_a_at) / Fold change /veh PRRT2 (11749266_a_at) / RFU SNX32 (11753110_a_at) / Fold change /veh SNX32 (11753110_a_at) / RFU CDHR5 (11726645_a_at) / Fold change /veh CDHR5 (11726645_a_at) / RFU RCAN1 (11760418_a_at) / Fold change /veh RCAN1 (11760418_a_at) / RFU FAM167A (11723789_a_at) / Fold change /veh FAM167A (11723789_a_at) / RFU FAM26E (11764081_at) / Fold change /veh FAM26E (11764081_at) / RFU ISYNA1 (11749810_s_at) / Fold change /veh ISYNA1 (11749810_s_at) / RFU ACY1 (11761880_at) / Fold change /veh ACY1 (11761880_at) / RFU 11764098_at / Fold change /veh 11764098_at / RFU SAMD14 (11745864_x_at) / Fold change /veh SAMD14 (11745864_x_at) / RFU NPB (11741838_a_at) / Fold change /veh NPB (11741838_a_at) / RFU TMPRSS6 (11731388_a_at) / Fold change /veh TMPRSS6 (11731388_a_at) / RFU KRTAP10-2 (11738614_at) / Fold change /veh KRTAP10-2 (11738614_at) / RFU ARHGAP8 /// PRR5-ARHGAP8 (11727945_x_at) / Fold change /veh ARHGAP8 /// PRR5-ARHGAP8 (11727945_x_at) / RFU KRTAP5-7 /// NADSYN1 (11734609_at) / Fold change /veh KRTAP5-7 /// NADSYN1 (11734609_at) / RFU RASL12 (11751679_a_at) / Fold change /veh RASL12 (11751679_a_at) / RFU CDKN2B (11736163_a_at) / Fold change /veh CDKN2B (11736163_a_at) / RFU PRF1 (11729649_at) / Fold change /veh PRF1 (11729649_at) / RFU, ZNF638 /// ZNF638-IT1 / Fold change vs veh, ZNF638 /// ZNF638-IT1 / RFU, PANK3 / Fold change vs veh, PANK3 / RFU, SH3YL1 / Fold change vs veh, SH3YL1 / RFU, ZEB2 / Fold change vs veh, ZEB2 / RFU, NRIP1 / Fold change vs veh, NRIP1 / RFU, PTTG1IP / Fold change vs veh, PTTG1IP / RFU, CAPN2 / Fold change vs veh, CAPN2 / RFU, MED14 / Fold change vs veh, MED14 / RFU, SNORA58 / Fold change vs veh, SNORA58 / RFU, C1orf63 / Fold change vs veh, C1orf63 / RFU, LRRFIP1 / Fold change vs veh, LRRFIP1 / RFU, NDUFAF7 / Fold change vs veh, NDUFAF7 / RFU, SLC12A2 / Fold change vs veh, SLC12A2 / RFU, IBTK / Fold change vs veh, IBTK / RFU, ESF1 / Fold change vs veh, ESF1 / Fold change vs veh, TMEM50B / RFU, TAOK1 / Fold change vs veh, TAOK1 / RFU, ACBD3 / Fold change vs veh, ACBD3 / RFU, TMA16 / Fold change vs veh, TMA16 / RFU, RWDD3 / Fold change vs veh, RWDD3 / RFU, BCAT1 / Fold change vs veh, BCAT1 / RFU, EDEM3 / Fold change vs veh, EDEM3 / RFU, TMEM33 / Fold change vs veh, TMEM33 / RFU, WDR75 / Fold change vs veh, WDR75 / RFU, AHCTF1 / Fold change vs veh, AHCTF1 / RFU, TFRC / Fold change vs veh, TFRC / RFU, ZDHHC17 / Fold change vs veh, ZDHHC17 / RFU, NOM1 / Fold change vs veh, NOM1 / RFU, ARL8B / Fold change vs veh, ARL8B / RFU, ZBTB11 / Fold change vs veh, ZBTB11 / RFU, TAMM41 / Fold change vs veh, TAMM41 / RFU, KIAA1704 /// LOC100996395 / Fold change vs veh, KIAA1704 /// LOC100996395 / RFU, ING1 / Fold change vs veh, ING1 / RFU, TRMT61B / Fold change vs veh, TRMT61B / RFU, FUBP3 / Fold change vs veh, FUBP3 / RFU, TP53 / Fold change vs veh, TP53 / RFU, TNKS2 / Fold change vs veh, TNKS2 / RFU, ZFP14 / Fold change vs veh, ZFP14 / RFU, ACTR2 / Fold change vs veh, ACTR2 / RFU, PPP3R1 / Fold change vs veh, PPP3R1 / RFU, PIK3R1 / Fold change vs veh, PIK3R1 / RFU, HNRNPA1 / Fold change vs veh, HNRNPA1 / RFU, RNF170 / Fold change vs veh, RNF170 / RFU, ZNF28 / Fold change vs veh, ZNF28 / RFU, RNGTT / Fold change vs veh, RNGTT / RFU, OGT / Fold change vs veh, OGT / RFU, BRD1 / Fold change vs veh, BRD1 / RFU, MARS / Fold change vs veh, MARS / RFU, ZNF655 / Fold change vs veh, ZNF655 / RFU, FAHD1 / Fold change vs veh, FAHD1 / RFU, BDP1 / Fold change vs veh, BDP1 / RFU, LRRCC1 / Fold change vs veh, LRRCC1 / RFU, ARID1A / Fold change vs veh, ARID1A / RFU, ZNF146 / Fold change vs veh, ZNF146 / RFU, ZNF330 / Fold change vs veh, ZNF330 / RFU, GPN3 / Fold change vs veh, GPN3 / RFU, C9orf123 / Fold change vs veh, C9orf123 / RFU, N4BP2L2 / Fold change vs veh, N4BP2L2 / RFU, ARFIP1 / Fold change vs veh, ARFIP1 / RFU, FAM179B / Fold change vs veh, FAM179B / RFU, BCL10 / Fold change vs veh, BCL10 / RFU, UHRF1BP1L / Fold change vs veh, UHRF1BP1L / RFU, BET1 / Fold change vs veh, BET1 / RFU, CNOT2 / Fold change vs veh, CNOT2 / RFU, ZNF268 / Fold change vs veh, ZNF268 / Fold change vs veh, ZNF507 / RFU, DGCR2 / Fold change vs veh, DGCR2 / RFU, WDSUB1 / Fold change vs veh, WDSUB1 / Fold change vs veh, HSP90B1 /// MIR3652 / RFU, ADSS / Fold change vs veh, ADSS / RFU, GK / Fold change vs veh, GK / RFU, ZNF148 / Fold change vs veh, ZNF148 / RFU, TAF9 / Fold change vs veh, TAF9 / RFU, SLC1A5 / Fold change vs veh, SLC1A5 / RFU, SLMO2 / Fold change vs veh, SLMO2 / RFU, ABCC4 / Fold change vs veh, ABCC4 / RFU, LOC101060439 /// RAP1B / Fold change vs veh, LOC101060439 /// RAP1B / RFU, RFX7 / Fold change vs veh, RFX7 / RFU, GTPBP10 / Fold change vs veh, GTPBP10 / RFU, CNEP1R1 / Fold change vs veh, CNEP1R1 / RFU, BIVM-ERCC5 /// ERCC5 / Fold change vs veh, BIVM-ERCC5 /// ERCC5 / RFU, ILF3 / Fold change vs veh, ILF3 / RFU 11762660_at / Fold change /veh 11762660_at / RFU VCAN (11757783_s_at) / Fold change /veh VCAN (11757783_s_at) / RFU DDX43 (11728927_at) / Fold change /veh DDX43 (11728927_at) / RFU KRT8 (11758188_x_at) / Fold change /veh KRT8 (11758188_x_at) / RFU NKD1 (11759106_at) / Fold change /veh NKD1 (11759106_at) / RFU SRD5A1 (11742802_a_at) / Fold change /veh SRD5A1 (11742802_a_at) / RFU TPSAB1 /// TPSB2 (11721975_s_at) / Fold change /veh TPSAB1 /// TPSB2 (11721975_s_at) / RFU GSTM3 (11746129_a_at) / Fold change /veh GSTM3 (11746129_a_at) / RFU IL23R (11737362_x_at) / Fold change /veh IL23R (11737362_x_at) / RFU TMEM51 (11727254_a_at) / Fold change /veh TMEM51 (11727254_a_at) / RFU PIWIL2 (11732686_x_at) / Fold change /veh PIWIL2 (11732686_x_at) / RFU ORM1 (11744905_x_at) / Fold change /veh ORM1 (11744905_x_at) / RFU CCDC152 (11743942_at) / Fold change /veh CCDC152 (11743942_at) / RFU ECM1 (11717891_a_at) / Fold change /veh ECM1 (11717891_a_at) / RFU IL23R (11748794_a_at) / Fold change /veh IL23R (11748794_a_at) / RFU TNFAIP8L3 (11732012_x_at) / Fold change /veh TNFAIP8L3 (11732012_x_at) / RFU MBOAT4 (11741988_at) / Fold change /veh MBOAT4 (11741988_at) / RFU 11764193_at / Fold change /veh 11764193_at / RFU TMEM53 (11763286_at) / Fold change /veh TMEM53 (11763286_at) / RFU MAGEB2 (11727129_at) / Fold change /veh MAGEB2 (11727129_at) / RFU TMEM200A (11744735_a_at) / Fold change /veh TMEM200A (11744735_a_at) / RFU CCDC152 (11751479_a_at) / Fold change /veh CCDC152 (11751479_a_at) / RFU FAM211A (11726209_a_at) / Fold change /veh FAM211A (11726209_a_at) / RFU RGS16 (11746705_a_at) / Fold change /veh RGS16 (11746705_a_at) / RFU VCAN (11755009_s_at) / Fold change /veh VCAN (11755009_s_at) / RFU RHOB (11743442_s_at) / Fold change /veh RHOB (11743442_s_at) / RFU RGS16 (11720943_a_at) / Fold change /veh RGS16 (11720943_a_at) / RFU RGS16 (11720944_at) / Fold change /veh RGS16 (11720944_at) / RFU, VPS4B / Fold change vs veh, VPS4B / RFU, CREB1 / Fold change vs veh, CREB1 / RFU, DNAJC13 / Fold change vs veh, DNAJC13 / RFU, GNAQ / Fold change vs veh, GNAQ / RFU, CDK5R1 / Fold change vs veh, CDK5R1 / RFU, ZRANB3 / Fold change vs veh, ZRANB3 / RFU, CUL4A / Fold change vs veh, CUL4A / RFU, CCNY / Fold change vs veh, CCNY / RFU, UFL1 / Fold change vs veh, UFL1 / RFU, COG3 / Fold change vs veh, COG3 / RFU, DIAPH2 / Fold change vs veh, DIAPH2 / RFU, SKA2 / Fold change vs veh, SKA2 / RFU, AFF3 / Fold change vs veh, AFF3 / RFU, LMF1 / Fold change vs veh, LMF1 / RFU, IPO11 / Fold change vs veh, IPO11 / RFU, DFFB / Fold change vs veh, DFFB / RFU, FOXP1 / Fold change vs veh, FOXP1 / RFU, CARD8 / Fold change vs veh, CARD8 / RFU, STRN3 / Fold change vs veh, STRN3 / RFU, ADK / Fold change vs veh, ADK / RFU, RASSF2 / Fold change vs veh, RASSF2 / RFU, WIPF1 / Fold change vs veh, WIPF1 / RFU, LARP1B / Fold change vs veh, LARP1B / RFU, RASA1 / Fold change vs veh, RASA1 / RFU, RB1 / Fold change vs veh, RB1 / RFU, PPFIA1 / Fold change vs veh, PPFIA1 / RFU, MAT2A / Fold change vs veh, MAT2A / RFU, CCT5 / Fold change vs veh, CCT5 / RFU, WDR92 / Fold change vs veh, WDR92 / RFU, CUX1 / Fold change vs veh, CUX1 / RFU, TTC7A / Fold change vs veh, TTC7A / RFU, TMEM135 / Fold change vs veh, TMEM135 / RFU, DEPTOR / Fold change vs veh, DEPTOR / RFU, CPM / Fold change vs veh, CPM / RFU, DNAJB6 / Fold change vs veh, DNAJB6 / RFU, CACNA2D3 / Fold change vs veh, CACNA2D3 / RFU, DTX4 / Fold change vs veh, DTX4 / RFU, TFCP2 / Fold change vs veh, TFCP2 / RFU, GMCL1 /// GMCL1P1 / Fold change vs veh, GMCL1 /// GMCL1P1 / RFU, AEBP2 / Fold change vs veh, AEBP2 / RFU, SNHG1 /// SNORD22 /// SNORD25 /// SNORD26 /// SNORD27 /// SNORD28 /// SNORD29 /// SNORD31 / Fold change vs veh, SNHG1 /// SNORD22 /// SNORD25 /// SNORD26 /// SNORD27 /// SNORD28 /// SNORD29 /// SNORD31 / Fold change (Aza/veh), C12orf56 (ProbeSet 11735607_a_at) / Fold change (ACY-1035/veh), C12orf56 (ProbeSet 11735607_a_at) / Fold change (Aza/veh), FGFR1OP (ProbeSet 11751329_s_at) / Fold change (ACY-1035/veh), FGFR1OP (ProbeSet 11751329_s_at) / Fold change (Aza/veh), VPS36 (ProbeSet 11739960_a_at) / Fold change (ACY-1035/veh), VPS36 (ProbeSet 11739960_a_at) / RFU SYPL1 (11715823_x_at) / Fold change /veh SYPL1 (11715823_x_at) / RFU IGFBP7 (11715501_s_at) / Fold change /veh IGFBP7 (11715501_s_at) / RFU REEP3 (11722064_at) / Fold change /veh REEP3 (11722064_at) / RFU IGLL1 (11728026_x_at) / Fold change /veh IGLL1 (11728026_x_at): dose or concentration left out as unconfirmed",
  "conditions": "MV-4-11 cells, 48 hours",
  "data": [
    {"smiles": "Nc1ccc(-c2cccs2)cc1NC(=O)c1ccc2c(c1)cc(C1CC1)n2CCN1CCOCC1", "note": "[ACY-1035]", "values": [
      {"measurement": "RFU CDKN2B (11736163_a_at)", "value": 9.39, "unit": "RFU"}
    ]}
  ]
}
